Data: the supplement of paper PMC3974653
Counter-ions that a name gives are not always drawn.

Tested on: MTT (mouse pheochromocytoma)
Assay: IC50 of cell viability (ATP content)
Conditions: (24 or 48 h)
Outline: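 Each well of a white 1536-well plate received 5 µl of MTT mouse pheochromocytoma cells at 200,000 cells/ml in DMEM containing 5% FBS and 1% horse serum. After overnight culture at 37°C, 5% CO2, cells were exposed for 24 or 48 hrs to 23 nl of library compound in DMSO, pinned at 8 final concentrations from 0.5 nM to 46 µM. CellTiter-Glo luminescence was read after 15 minutes, and IC50 was obtained from a four-parameter logistic fit of signals normalised to positive-control and DMSO wells.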

Row | SMILES | IC50 of cell viability [µM]
1 | CO/N=C1\C[C@]2(C[C@@H]3C[C@H](CC=C(C)C[C@@H](C)C=CC=C4CO[C@@H]5[C@@H](O)C(C)=C[C@@H](C(=O)O3)[C@]45O)O2)O[C@@H](/C(C)=C/C(C)C)[C@H]1C [Moxidectin] | > 46
2 | COC(=O)C1C(OC(=O)c2ccccc2)CC2CCC1N2C (stereo not drawn) [Allococaine] | > 46
3 | O=C(CCN1CCN(CCO)CC1)N1c2ccccc2Sc2ccc(C(F)(F)F)cc21 [Ftorpropazine] | > 46
4 | c1ccc2nc(N3CCNCC3)ccc2c1 [QUIPAZINE] | > 46
5 | O=C(CCBr)N1CCN(C(=O)CCBr)CC1 [PIPOBROMAN] | > 46
6 | COC(=O)C(c1ccccc1Cl)N1CCc2sccc2C1 (stereo not drawn) [CLOPIDOGREL BISULFATE] | > 46
7 | COc1ccc2c3c1O[C@H]1[C@@H](O)C=C[C@H]4C(C2)NCCC341 (single isomer, unassigned; (-)) [(-)-NORCODEINE] | > 46
8 | O=C(O)c1cccc(-c2noc(-c3ccccc3F)n2)c1 [PTC 124] | > 46
9 | Cc1c(OCC(F)(F)F)ccnc1C[S+]([O-])c1nc2ccccc2[nH]1 (stereo not drawn) [Lansoprazole] | > 46
10 | CC(C)NCC(O)c1ccc([N+](=O)[O-])cc1 (stereo not drawn) [Nifenalol] | > 46
11 | CCCCC(F)(F)[C@@]1(O)CC[C@H]2[C@@H](CC(=O)[C@@H]2CCCCCCC(=O)O)O1 [Lubiprostone] | > 46
12 | O=C(O)CN1C(=O)c2cccc3cccc(c23)C1=O [Alrestatin] | > 46
13 | CN(C)[C@H]\1[C@@H]2C[C@@H]\3[C@@H](O)C4=C(Cl)C=CC(=C4C(=O)C3=C(\O)[C@@]2(O)C(=O)\C(=C1O)C(N)=O)O [Demeclocycline hydrochloride] | > 46
14 | O=C1C(CCC(O)c2ccc(F)cc2)C(c2ccc(O)cc2)N1c1ccc(F)cc1 (stereo not drawn) [EZETIMIBE] | > 46
15 | OC(c1ccccc1)(c1ccccc1)C1CCNCC1 [Azacyclonol] | > 46
16 | Oc1ccc(O)cc1 [Hydroquinone] | > 46
17 | CN1CCC(O)(c2ccc(F)cc2)C(C(=O)c2ccc(F)cc2)C1 (stereo not drawn) [Flazalone] | > 46
18 | NCC1=C(CC(=O)N[C@H]2[C@@H]3SC\C(=C(/N3C2=O)C(O)=O)CSC4=NN=N[N]4CC(O)=O)C=CC=C1 [Ceforanide] | > 46
19 | C[N+](C)(C)CCOP(=O)([O-])OP(=O)([O-])OCC1OC(n2ccc(N)nc2=O)[C@H](O)[C@@H]1O (stereo partly drawn) [Cytidine 5'-diphosphocholine sodium salt hydrate] | > 46
20 | O=P(O)(O)OC[C@H]1O[C@](O)(COP(=O)(O)O)[C@@H](O)[C@@H]1O [FOSFRUCTOSUM] | > 46
21 | Oc1ncc(N(CCCl)CCCl)c(O)n1 [URACIL MUSTARD] | > 46
22 | CCOC(=O)c1ccccc1C(=O)OCC [Diethyl phthalate] | > 46
23 | CCCc1cc(O)nc(S)n1 [6-Propyl-2-thiouracil] | > 46
24 | OC1=CC2=C([NH]C=C2CCCCN3CC\C(=C/C3)C4=CC=CC=C4)C=C1 [Roxindole hydrochloride] | > 46

Row | SMILES | IC50 of cell viability [µM]
25 | CCC(C)(C)c1ccc(CC(C)CN2C[C@@H](C)O[C@@H](C)C2)cc1 (stereo partly drawn) [AMOROLFINE HYDROCHLORIDE] | > 46
26 | CC(C)CCC[C@@H](C)[C@H]1CC[C@H]2[C@@H]3CC=C4C[C@@H](O)CC[C@]4(C)[C@H]3CC[C@]12C [CHOLESTEROL] | > 46
27 | CC/C=C(\C(=O)N[C@H]1C(=O)N2C(C(=O)OCOC(=O)C(C)(C)C)=C(COC(N)=O)CS[C@H]12)c1csc(N)n1 [Cefcapene pivoxil hydrochloride] | > 46
28 | CN1CCCC[C@@H]1CCN1c2ccccc2Sc2ccc([S+](C)[O-])cc21 (stereo partly drawn) [mesoridazine] | > 46
29 | O=c1[nH]c2ccccc2n1CCCN1CCN(C(c2ccccc2)c2ccccc2)CC1 [Oxatomide] | > 46
30 | CC1=C(/C=C/C(C)=C/C=C/C(C)=C/C=C/C=C(C)/C=C/C=C(C)/C=C/C2=C(C)CCCC2(C)C)C(C)(C)CCC1 [beta-CAROTENE] | > 46
31 | Cc1cccc(C(C)c2cnc[nH]2)c1C (stereo not drawn) [Medetomidine hydrochloride] | > 46
32 | CCC[C@@H]1CC(C(=O)NC(C2O[C@H](SC)C(OP(=O)(O)O)[C@H](O)[C@H]2O)[C@H](C)Cl)N(C)C1 (stereo partly drawn) [Clindamycin 2-phosphate] | > 46
33 | CC(CN(C)C)CN1c2ccccc2Sc2ccc(C(F)(F)F)cc21 (stereo not drawn) [TRIFLUOMEPRAZINE MALEATE] | > 46
34 | CCCOc1ccc(C(=O)OCCN(CC)CC)cc1N [Proparacaine hydrochloride] | > 46
35 | CN(C)C1C(=O)C(C(N)=O)C(=O)C2(O)C(=O)C3C(=O)c4c(O)cccc4C(C)(O)C3C(O)C12 (stereo not drawn) [OXYTETRACYCLINE] | > 46
36 | C=C(Nc1ccc(OCC)cc1)Nc1ccc(OCC)cc1 [PHENACAINE HYDROCHLORIDE] | > 46
37 | O=C\1OC2=C(C=CC=C2)\C=C1 [Coumarin] | > 46
38 | CSc1ccc2c(c1)C(N1CCN(C)CC1)Cc1ccccc1S2 (stereo not drawn) [METHIOTHEPIN] | > 46
39 | CO[C@H]1/C=C/O[C@@]2(C)Oc3c(C)c(O)c4c(O)c(c(/C=N\N5CCN(C6CCCC6)CC5)c(O)c4c3C2=O)NC(=O)C(C)=C/C=C/[C@H](C)[C@H](O)[C@@H](C)[C@@H](O)[C@@H](C)[C@H](OC(C)=O)[C@@H]1C [RIFAPENTINE] | > 46
40 | CCN(CC)CCOc1ccccc1OC [Guaiactamine] | > 46
41 | C[C@]\12CCC(=O)\C=C1CC[C@H]3[C@@H]4CC[C@](O)(C(=O)COC(=O)CCC(O)=O)[C@@]4(C)C[C@H](O)[C@H]23 [Hydrocortisone 21-hemisuccinate sodium salt] | > 46
42 | NC1(CCC1)C2=CC=C(C=C2)C3=C(C=C/4C(=N3)\C=C/N5C(=O)N\N=C45)C6=CC=CC=C6 [MK-2206] | > 46
43 | CC1(C)S[C@@H]2[C@H](N)C(=O)N2[C@@H]1C(=O)O [6-AMINOPENICILLANIC ACID] | > 46
44 | CCOP(=S)(OCC)Oc1cc(C)nc(C(C)C)n1 [Diazinon] | > 46
45 | C[C@@H]1O[C@@H](O[C@H]2C[C@@H](O)[C@@]3(CO)[C@H]4[C@H](O)C[C@]5(C)[C@H](CC[C@]5(O)[C@H]4CC[C@@]3(O)C2)\C6=C\C(=O)OC6)[C@@H](O)[C@H](O)[C@H]1O [ouabain] | > 46
46 | O=C(OCC(COC(=O)c1cccnc1)(COC(=O)c1cccnc1)COC(=O)c1cccnc1)c1cccnc1 [Niceritrol] | > 46
47 | C(=C/c1ccccc1)/CN1CCN(C(c2ccccc2)c2ccccc2)CC1 [Cinnarizine] | > 46
48 | NC(=O)C1CC2(NC(=O)NC2=O)c2cc(F)ccc2O1 (stereo not drawn) [FIDARESTAT] | > 46
